Converted amounts (≈) assume the structure as drawn. The source made the active and inactive calls. No cut-off for these calls is given here.
Experiments:
Aspergillus fumigatus [1] = assay: Antifungal activity against Aspergillus fumigatus assessed as inhibition of fungal growth by serial dilution assay; assay type: functional
HEK293 [2] = assay: Cytotoxicity against human HEK293 cells at 6.25 to 12.5 uM incubated for 24 hrs by Hoechst 33258 staining based flow cytometry; assay type: toxicity, cell-based; settings: hek293, 24 h, dose 6.25-12.5 µM
Candida albicans [3] = assay: Antifungal activity against Candida albicans ATCC90028 infected in Galleria mellonella larvae assessed as larval survival at 15 mg/kg measured after 6 days; assay type: functional; settings: time 6 day
[4] = Toxicity in human HEK293 cells assessed as effect on polymerized actin pattern at 50 uM incubated for 24 hrs by phalloidin conjugated AlexaFluor-488 staining based confocal microscopic analysis; assay type: cell-based; settings: hek293, 24 h
[5] = Toxicity in Galleria mellonella larvae assessed as effect on survival at 15 mg/kg measured for 144 hrs; assay type: organism-based; settings: in vivo
[6] = Toxicity in human HEK293 cells assessed as effect on mitochondrial morphology at 50 uM incubated for 24 hrs by mitotracker red staining based confocal microscopic analysis; assay type: cell-based; settings: hek293, 24 h
[7] = Stability in human plasma in PBS at pH 7.4 assessed as half life by HPLC analysis; assay type: ADME, cell-free
[8] = Toxicity in human HEK293 cells assessed as reduction in cell confluency at 50 uM incubated for 24 hrs by mitotracker red staining based confocal microscopic analysis; design: scale not given: the % may be the effect or the level left; settings: hek293, 24 h
[9] = Toxicity in human HEK293 cells assessed as effect on cell viability at 50 uM incubated for 24 hrs by confocal microscopic analysis; assay type: cell-based; settings: hek293, 24 h
[10] = Toxicity in human HEK293 cells assessed as effect on polymerized actin signal at 50 uM incubated for 24 hrs by phalloidin conjugated AlexaFluor-488 staining based confocal microscopic analysis; assay type: cell-based; settings: hek293, 24 h
HEK293 [11] = assay: Cytotoxicity against human HEK293 cells at 12.5 uM incubated for 24 hrs by Hoechst 33258 staining based flow cytometry; assay type: toxicity, cell-based; settings: hek293, 24 h
Candida albicans [12] = assay: Antifungal activity against Candida albicans ATCC90028 infected in Galleria mellonella larvae assessed as increase in larval survival at 15 mg/kg measured after 6 days; assay type: functional, organism-based; settings: time 6.0 day
Aspergillus fumigatus [13] = assay: Antifungal activity against Aspergillus fumigatus ATCC204305 infected in Galleria mellonella larvae assessed as increase in larval survival at 15 mg/kg measured after 6 days; assay type: functional, organism-based; settings: time 6.0 day
[14] = Toxicity in Galleria mellonella larvae assessed as larvae death at 15 mg/kg measured for 144 hrs; assay type: organism-based; settings: in vivo
[15] = Cytotoxicity against human HEK293 cells assessed as cell viability at 100 uM incubated for 24 hrs by Hoechst 33258 staining based flow cytometry; assay type: toxicity; settings: read-out: Activity
[16] = Stability in PBS at pH 7.4 assessed as half life by HPLC analysis; assay type: physicochemical
HEK293 [17] = assay: Cytotoxicity against human HEK293 cells at 6.25 to 100 uM incubated for 24 hrs by Hoechst 33258 staining based flow cytometry; assay type: toxicity, cell-based; settings: hek293, 24 h, dose 6.25-100 µM
Candida albicans [18] = assay: Antifungal activity against Candida albicans ATCC90028 infected in Galleria mellonella larvae assessed as larval survival at 15 mg/kg measured after 72 hrs; assay type: functional
Candida albicans [19] = assay: Antifungal activity against Candida albicans assessed as inhibition of fungal growth by serial dilution assay; assay type: functional
[20] = Toxicity in human HEK293 cells assessed as reduction in cell viability at 50 uM incubated for 24 hrs by mitotracker red staining based confocal microscopic analysis; settings: hek293, 24 h
[21] = Toxicity in human HEK293 cells assessed as effect on adherent cells at 6.25 uM incubated for 24 hrs by confocal microscopic analysis; assay type: cell-based; settings: hek293, 24 h
[22] = Toxicity in human HEK293 cells assessed as effect on cell morphology at 6.25 uM incubated for 24 hrs by confocal microscopic analysis; assay type: cell-based; settings: hek293, 24 h
[23] = Toxicity in human HEK293 cells assessed as effect on cell physiology at 6.25 uM incubated for 24 hrs by confocal microscopic analysis; assay type: cell-based; settings: hek293, 24 h
Candida albicans [24] = assay: Antifungal activity against Candida albicans SN250 assessed as inhibition of fungal growth by broth dilution assay; assay type: functional
Candida albicans [25] = assay: Antifungal activity against Candida albicans K1 assessed as inhibition of fungal growth; assay type: functional
Aspergillus fumigatus [26] = assay: Antifungal activity against Aspergillus fumigatus ATCC204305 infected in Galleria mellonella larvae assessed as larval survival at 15 mg/kg measured after 6 days; assay type: functional; settings: time 6 day

SMILES | MIC90 (Aspergillus fumigatus [1]) [µg/mL] | Activity (HEK293 [2]) | Activity (Candida albicans [3]) [%] | Activity [5] | half-life [7] [min] | Activity [8] | Activity (HEK293 [11]) | Activity (Candida albicans [12]) | Activity (Aspergillus fumigatus [13]) | viability at 24 h, 100 µM [15] [%] | half-life [16] [min] | further results
CCOP(=O)(OCCOC(C)=O)Oc1ccc(COC(=O)N[C@@H]2[C@H](O)[C@H](O[C@H]3/C=C/C=C/C=C/C=C/C=C/C=C/C=C/[C@H](C)[C@@H](O)[C@@H](C)[C@H](C)OC(=O)C[C@H](O)C[C@H](O)CC[C@@H](O)[C@H](O)C[C@H](O)C[C@]4(O)C[C@H](O)[C@@H](C(=O)O)[C@H](C3)O4)O[C@H](C)[C@H]2O)cc1 (stereo partly drawn) | > 16 | Toxic | 10 | Non-toxic | 78 | ~ 50% | Toxic | Active | Active | ~86 | 2100 | Activity [4]: Non-toxic; Activity [6]: Non-toxic; Activity [9]: Non-toxic; Activity [10]: Non-toxic; Activity [14]: Toxic
CCOC(=O)[C@H](C)OP(=O)(OCC)Oc1ccc(COC(=O)OCOC(=O)[C@H]2[C@@H]3C[C@@H](O[C@@H]4O[C@H](C)[C@@H](O)[C@H](N)[C@@H]4O)/C=C/C=C/C=C/C=C/C=C/C=C/C=C/[C@H](C)[C@@H](O)[C@@H](C)[C@H](C)OC(=O)C[C@H](O)C[C@H](O)CC[C@@H](O)[C@H](O)C[C@H](O)C[C@](O)(C[C@@H]2O)O3)cc1 (stereo partly drawn) | 2 (≈ 1.52 µM) | Toxic | 40 | Non-toxic | 132 |  | Toxic | Active | Active |  | 168 | Activity (HEK293 [17]): Toxic; Activity (Candida albicans [18]): 70%; MIC90 (Candida albicans [19]): 2 µg/mL (≈ 1.52 µM); Activity [20]: Toxic
C[C@@H]1[C@H](O)[C@@H](C)/C=C/C=C/C=C/C=C/C=C/C=C/C=C/[C@H](O[C@@H]2O[C@H](C)[C@@H](O)[C@H](N)[C@@H]2O)C[C@@H]2O[C@](O)(C[C@@H](O)C[C@@H](O)[C@H](O)CC[C@@H](O)C[C@@H](O)CC(=O)O[C@H]1C)C[C@H](O)[C@H]2C(=O)O [AMPHOTERICIN B] |  |  |  |  |  |  |  |  |  | 0 |  | Activity [21]: Toxic; Activity [22]: Toxic; Activity [23]: Toxic
C[C@@H]1[C@H](O)[C@@H](C)/C=C/C=C/C=C/C=C/C=C/C=C/C=C/[C@H](O[C@@H]2O[C@H](C)[C@@H](O)[C@H](N)[C@@H]2O)C[C@@H]2O[C@](O)(C[C@@H](O)C[C@@H](O)[C@H](O)CC[C@@H](O)C[C@@H](O)CC(=O)O[C@H]1C)C[C@H](O)[C@H]2NC(=O)C(CO)CO |  |  |  |  |  |  |  |  |  |  |  | MIC (Candida albicans [24]): 120 µg/mL (≈ 120 µM)
C[C@@H]1[C@H](O)[C@@H](C)/C=C/C=C/C=C/C=C/C=C/C=C/C=C/[C@H](O[C@@H]2O[C@H](C)[C@@H](O)[C@H](N)[C@@H]2O)C[C@@H]2O[C@](O)(C[C@@H](O)C[C@@H](O)[C@H](O)CC[C@@H](O)C[C@@H](O)CC(=O)O[C@H]1C)C[C@H](O)[C@H]2NC(=O)NCCN |  |  |  |  |  |  |  |  |  |  |  | MIC (Candida albicans [25]): 500 µg/mL (≈ 510 µM)
CCOC(=O)[C@H](C)OP(=O)(OCC)Oc1ccc(COC(=O)N[C@@H]2[C@H](O)[C@H](O[C@H]3/C=C/C=C/C=C/C=C/C=C/C=C/C=C/[C@H](C)[C@@H](O)[C@@H](C)[C@H](C)OC(=O)C[C@H](O)C[C@H](O)CC[C@@H](O)[C@H](O)C[C@H](O)C[C@]4(O)C[C@H](O)[C@@H](C(=O)O)[C@H](C3)O4)O[C@H](C)[C@H]2O)cc1 (stereo partly drawn) | > 16 | Toxic | 10 | Non-toxic | 270 | ~ 50% | Toxic | Active | Active | ~78 | 1080 | Activity [4]: Non-toxic; Activity [6]: Non-toxic; Activity [9]: Non-toxic; Activity [10]: Non-toxic; Activity (Aspergillus fumigatus [26]): 40%
CC(C)OC(=O)OCOC(=O)[C@H]1[C@@H]2C[C@@H](O[C@@H]3O[C@H](C)[C@@H](O)[C@H](N)[C@@H]3O)/C=C/C=C/C=C/C=C/C=C/C=C/C=C/[C@H](C)[C@@H](O)[C@@H](C)[C@H](C)OC(=O)C[C@H](O)C[C@H](O)CC[C@@H](O)[C@H](O)C[C@H](O)C[C@](O)(C[C@@H]1O)O2 | > 16 | Toxic | 10 | Non-toxic | 198 | ~ 10% | Toxic | Active | Active |  | 456 | Activity (HEK293 [17]): Non-toxic; MIC90 (Candida albicans [19]): 2 µg/mL (≈ 1.92 µM)
